Assays:
[1] = tested on: oHSV-1 (G207) in U87 tumors; assay: U87 xenograft, C16 with G207: viral DNA qPCR and immunohistochemistry of tumors; format: in vivo, mice; conditions: 5 mg/kg C16, day 13
Experimental: FIG. 14A is a bar graph showing that C16 triggers oHSV-1 protein expression in microglia/macrophages and enhances virus concentration in glioblastoma in vivo. U87 xenograft mice were treated with vehicle or 5 mg/kg C16 with or without 6×10^6 PFU/ml oHSV-1 (G207) viruses (n=2). Two doses of G207 or vehicle and 4 doses (in every 3 or 4 days) of C16 was administered in total. Tumors were harvested at day 13 post-treatment. Total genomic DNA was extracted from the harvested tumors (n=2) and viral DNA (ICP27) was measured by qPCR (normalized to β-actin). Data shown are relative 2-ΔΔCT value±SE.
5 to 6 weeks old female athymic nude mice were obtained from Harlon laboratories. Human glioma U87 cells were implanted subcutaneously into the lower flank. When tumor size reached ˜75 to 100 mm3, vehicle or C16 (5 mg/kg) was administered intraperitoneally (IP). 2 days (FIG. 14) or 4 days (FIG. 15) after initial C16 administration, vehicle or oHSV-1 were injected intratumourally. Tumor volume was then measured using a caliper (Height×Length×Wide/2). At the end of the experiment, mice were euthanized by using CO2 asphyxiation.
DNA was extracted from 4% paraformaldehyde fixed tumor tissues by using an EZNA tissue DNA kit (Omega Bioteck). […]

STAT1 = target: T1, STAT1 (Mus musculus, UniProt P42225); assay: Western blot of STAT1 phosphorylation in CT26 cells; format: cell-based; conditions: 24 hours
T1 construct: Total protein was extracted after 24 hours and subjected to western blot analysis; endogenous in cells; host or cells: CT26 cells, with or without HrR3 infection
T1 sequence (P42225 whole entry): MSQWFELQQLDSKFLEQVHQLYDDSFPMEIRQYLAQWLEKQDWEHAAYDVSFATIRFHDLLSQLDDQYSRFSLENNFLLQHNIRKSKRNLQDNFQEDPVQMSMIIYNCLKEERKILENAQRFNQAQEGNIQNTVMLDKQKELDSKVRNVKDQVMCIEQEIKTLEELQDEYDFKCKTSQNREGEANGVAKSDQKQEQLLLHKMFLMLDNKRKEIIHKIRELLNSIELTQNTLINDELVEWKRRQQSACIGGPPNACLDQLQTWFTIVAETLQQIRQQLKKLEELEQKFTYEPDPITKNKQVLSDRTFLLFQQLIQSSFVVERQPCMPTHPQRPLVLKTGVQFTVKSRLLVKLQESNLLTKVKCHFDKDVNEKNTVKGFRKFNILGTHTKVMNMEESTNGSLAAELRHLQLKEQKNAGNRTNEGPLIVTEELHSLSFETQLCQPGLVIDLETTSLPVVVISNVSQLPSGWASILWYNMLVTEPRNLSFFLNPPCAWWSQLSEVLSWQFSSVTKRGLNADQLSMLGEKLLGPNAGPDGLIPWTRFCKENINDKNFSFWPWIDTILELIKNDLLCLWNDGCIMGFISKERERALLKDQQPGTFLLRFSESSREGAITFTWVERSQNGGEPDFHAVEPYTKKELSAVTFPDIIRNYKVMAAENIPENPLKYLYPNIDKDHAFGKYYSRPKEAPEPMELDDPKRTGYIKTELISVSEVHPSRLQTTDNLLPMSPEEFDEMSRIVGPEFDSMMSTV
Experimental: FIG. 19A and FIG. 19B, U87 cells (A) or CT26 cells (B) were treated with the indicated concentrations of HrR3 or NF or a combination. Total protein was extracted after 24 hours and subjected to western blot analysis. Band intensity was measured using Image J software and normalized to β-actin. Samples were run in triplicate and data are as means±S.E. Statistically significant differences are indicated by P<0.05 or P<0.01. FIG. 19C, Mice subcutaneously bearing U87 tumors were intratumorally injected with a single dose of HrR3 virus (1×10^6 PFU) and/or peritoneally injected doses of NF as indicated. Tumors were harvested on day 10 post treatment and total protein was extracted from a mouse of each treatment group and subjected to western blot analysis in triplicate. Results are reported as means±S.E.
NF is a known inhibitor of STAT1 and STAT3. To evaluate the underlying molecular mechanism of the anti-tumour effect of the NF and oHSV-1 combination, the STAT1 and STAT3 status in U87 cells (FIG. 19A) and CT26 cells (FIG. 19B) cells was determined after an overnight treatment with NF and oncolytic viruses.

BTUC cells = assay: MTT cytotoxicity assay, BTUC cells; format: cell-based; conditions: 72 hours, read-out: Inhibitory concentration 50% (IC50)
Experimental: FIGS. 1A-1B are graphs that show an anti-tumor effect of nifuroxazide. (FIG. 1A) Cells were treated with indicated concentration of nifuroxazide for 72 hours. Cytotoxicity was measured by using MTT assay. (FIG. 1B) Subcutaneously U87 tumor bearing mice were peritoneally injected with indicated doses of nifuroxazide. Tumor size was measured using calipers at day 7 post nifuroxazide treatment.
In this example, the antitumor effect of nifuroxazide is evaluated in different tumor cells. Cells were treated with nifuroxazide for 72 hours (FIG. 1A). […] To verify the anti-tumor efficacy of nifuroxazide in vivo, animals with subcutaneous U87 tumor implants were injected in the peritoneum with vehicle, 1 mg/kg nifuroxazide and 50 mg/kg nifuroxazide. […] Tumor volume was reduced around 25% and 60% after 7 days treatment with 1 mg/kg nifuroxazide and 50 mg/kg nifuroxazide respectively (FIG. 1B).
Cells were seeded in a 96-well plate at a density of 1×104 (U87). After overnight incubation, cells were treated with only vehicle or indicated MOI of virus or indicated concentration of drugs or reagents. After 2 to 3 days of treatment cell viability was measured by MTT assay (Sigma, Canada) according to the manufacturer's instruction. […] After overnight incubation with lysis buffer, cell viability was measured at 595 nm using a plate reader (Envision 2103 Multilabel reader, Perkin Elmer).

SMILES | oHSV-1 titer in the tumor mass (viral DNA copy number, qPCR) [1] | HrR3 induced upregulation of STAT1 phosphorylation (STAT1) | phosphorylation of STAT1 (STAT1; NF alone) | IC50 (BTUC cells)
O=C1Nc2ccc3ncsc3c2/C1=C/c1c[nH]cn1 [C16, 6,8-Dihydro-8-(1H-imidazol-5-ylmethylene)-7H-pyrrolo[2,3-g]benzothiazol-7-one] | significantly enhanced oHSV-1 titer |  |  | 
O=C(N/N=C/c1ccc([N+](=O)[O-])o1)c1ccc(O)cc1 [nifuroxazide, Benzoic acid, 4-hydroxy-, [(5-nitro-2-furanyl)metylene]hydrazide] |  | effectively suppressed | dose dependent inhibition | ~15 µM

Source: patent publication US20190307820A1, “COMPOSITIONS AND METHODS OF USING STAT1/3 INHIBITORS WITH ONCOLYTIC HERPES VIRUS” (priority 2016, published 2019)
